{"source": "patent US20230404998A1", "about": "“Combination Therapies for Treating Cancer” (ASCENTAGE PHARMA (SUZHOU) CO., LTD., priority 2020, published 2023)", "target": "BaF3(Bcr-Abl) G250E (Homo sapiens, UniProt P00519, G250E, cells depend on it)", "conditions": "read-out: Anti-proliferation (IC50)", "experimental": "The anti-proliferative effect was determined by a water-soluble tetrazolium (WST)-based assay using Cell Counting Kit-8 (CCK-8, #D3100L4057, Shanghai life ilab bio technology co., LTD, China). Cells were seeded in 96-well plates and treated with different concentrations of test articles. […] Each treatment was tested in triplicates. The plate was then cultured at 37° C. with 5% CO2 for 72 hours. At the end of treatments, 20 μl/well of CCK-8 reagent was directly added to each wells. The plate was then incubated at 37° C. with 5% CO2 for 2-4 h. The OD value was detected at 450 nm on a microplate reader (SpectraMax I3X, Molecular Devices, US). IC50 values were calculated with Graphpad Prism 7.0 software using nonlinear regression (curve fitting) type data analysis. For combination effect assay, the cells viability was normalized using the mean OD value of triplicated wells for the single agent control."}
{"compound": "Cc1ccc(C(=O)Nc2ccc(CN3CCN(C)CC3)c(C(F)(F)F)c2)cc1C#Cc1cnc2[nH]ncc2c1", "note": "[HQP1351, 3-(2-(1H-pyrazolo[3,4-b]pyridin-5-yl)ethynyl)-4-methyl-N-(4-((4-methylpiperazin-1-yl)methyl)-3-(trifluoromethyl)phenyl)-benzamide]", "values": [{"measurement": "GI50", "result": "29 ± 4", "unit": "nM"}]}
